pIC50: −log10 of the molar value. Where two headings read alike, the source gives them in different places. Blank lines part the entries; values can stand above or below the molecule they belong to.
Key:
human glucagon receptor = molecular target: T1, human glucagon receptor (Homo sapiens, UniProt P47871); test: Glucagon Binding Assay (III); conditions: BHK cell membranes, WGA SPA beads, 125I-glucagon; for pIC50: read-out: Glu Bd Assay (III) IC50
T1 construct: expressed in transfected cells; host or cells: BHK (baby hamster kidney) cells
Method in brief: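 Non-specific binding was set with 500 nM glucagon in this SPA-type binding assay using WGA beads. The receptor source was a membrane preparation, kept on ice or at 4 °C, from BHK cells transfected with the human receptor. Scintillation counts were taken after 4 hours of shaking and 8–48 hours of settling.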

[1] = molecular target: T2, cloned human glucagon receptor (Homo sapiens, UniProt P47871); test: Glucagon Binding Assay (II); conditions: plasma membranes of BHK cells expressing the receptor; read-out: Glu Bd Assay (II) IC50
T2 construct: expressed in transfected cells; plasma membrane preparation

[2] = molecular target: T2, cloned human glucagon receptor; test: Glucagon Binding Assay (I); conditions: for pIC50: plasma membranes of BHK cells expressing the receptor, 125I-glucagon tracer, read-out: Glu Bd Assay (I) IC50
Procedure: Binding of compounds to the glucagon receptor was determined in a competition binding assay using the cloned human glucagon receptor.
Receptor binding was assayed using cloned human receptor (Lok et al., Gene 140, 203-209 (1994)). The receptor inserted in the pLJ6′ expression vector using EcoRI/SSt1 restriction sites (Lok et al.) was expressed in a baby hamster kidney cell line (A3 BHK 570-25).
Plasma membranes were prepared by growing cells to confluence, detaching them from the surface and resuspending the cells in cold buffer (10 mM tris/HCl, pH 7.4 containing 30 mM NaCl, 1 mM dithiothreitol, 5 mg/L leupeptin (Sigma), 5 mg/L pepstatin (Sigma), 100 mg/L bacitracin (Sigma) and 15 mg/L recombinant aprotinin (Novo Nordisk A/S)), homogenization by two 10-s bursts using a Polytron PT 10-35 homogenizer (Kinematica), and centrifugation upon a layer of 41 w/v % sucrose at 95.000×g for 75 min. The white band located between the two layers was diluted in buffer and centrifuged at 40.000×g for 45 min. The precipitate containing the plasma membranes was suspended in buffer and stored at −80° C. until use. Glucagon was iodinated according to the chloramine T method (Hunter and Greenwood, Nature 194, 495 (1962)) and purified using anion exchange chromatography (Jørgensen et al., Hormone and Metab. Res. 4, 223-224 (1972). The specific activity was 460 μCi/μg on the day of iodination. Tracer was stored at −18° C. in aliquots and were used immediately after thawing.
Binding assays were carried out in triplicate in filter microtiter plates (MADV N65, Millipore). The buffer used in this assay was 50 mM HEPES, 5 mM EGTA, 5 mM MgCl2, 0.005% tween 20, pH 7.4. Glucagon was dissolved in 0.05 M HCl, added an equal amount (w/w) of HSA and freeze-dried. On the day of use, it was dissolved in water and diluted in buffer to the desired concentrations.
Test compounds were dissolved and diluted in DMSO. 140 μL buffer, 25 μL glucagon or buffer, and 10 μL DMSO or test compound were added to each well. Tracer (50.000 cpm) was diluted in buffer and 25 μL were added to each well. 1-4 μg freshly thawed plasma membrane protein diluted in buffer was then added in aliquots of 25 μL to each well. Plates were incubated at 30° C. for 2 hours. Non-specific binding was determined with 10^−6 M of glucagon. Bound tracer and unbound tracer were then separated by vacuum filtration (Millipore vacuum manifold). The plates were washed with 2×100 μL buffer/well. The plates were air dried for a couple of hours, whereupon the filters were separated from the plates using a Millipore Puncher. The filters were counted in a gamma counter.

T2 sequence (P47871 26-477): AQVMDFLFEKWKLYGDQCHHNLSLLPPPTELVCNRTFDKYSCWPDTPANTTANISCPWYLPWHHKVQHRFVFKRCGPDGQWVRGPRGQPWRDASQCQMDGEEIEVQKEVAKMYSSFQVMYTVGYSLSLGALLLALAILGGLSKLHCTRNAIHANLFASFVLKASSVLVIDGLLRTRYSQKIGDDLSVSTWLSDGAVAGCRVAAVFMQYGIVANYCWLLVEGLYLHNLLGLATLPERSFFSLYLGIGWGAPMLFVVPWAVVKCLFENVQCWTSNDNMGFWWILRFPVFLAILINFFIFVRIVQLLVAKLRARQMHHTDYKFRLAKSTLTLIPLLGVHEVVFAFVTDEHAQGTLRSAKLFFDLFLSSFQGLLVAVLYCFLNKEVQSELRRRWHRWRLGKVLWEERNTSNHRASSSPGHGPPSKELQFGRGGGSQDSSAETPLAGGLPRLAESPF
T1 sequence (P47871 26-477): as above

Structure (SMILES): O=C(O)CCNC(=O)c1ccc(CN(C(=O)Nc2cc(Cl)cc(Cl)c2)c2ccc(C3CCCCC3)cc2)cc1 [Example 232, 3-{4-[1-(4-Cyclohexylphenyl)-3-(3,5-dichlorophenyl)ureidomethyl]benzoylamino}propionic acid]
- pIC50 (human glucagon receptor): 7.52
- pIC50 [1]: 7.77

Structure (SMILES): O=C(O)CCNC(=O)c1ccc(CN(C(=O)Nc2ccc(OC(F)(F)F)cc2)c2ccc(C3CCCCC3)cc2)cc1 [Example 179, 3-{4-[1-(4-Cyclohexylphenyl)-3-(4-trifluoromethoxyphenyl)ureidomethyl]benzoylamino}propionic acid]
- pIC50 (human glucagon receptor): 7.29
- pIC50 [1]: 7.48

Structure (SMILES): CCCCC(CC)CN(Cc1ccc(C(=O)NCCC(=O)O)cc1)C(=O)Nc1ccc(-c2ccccc2)cc1 (stereo not drawn) [Example 10, 3-{4-[3-Biphenyl-4-yl-1-(2-ethylhexyl)ureidomethyl]benzoylamino}propionic acid]
- pIC50 [2]: 7.38

Structure (SMILES): O=C(Nc1nn[nH]n1)c1ccc(CN(C(=O)Nc2ccc(Cl)c(C(F)(F)F)c2)c2ccc(C3CCCCC3)cc2)cc1 [Example 282, 4-[3-(4-Chloro-3-trifluoromethylphenyl)-1-(4-cyclohexylphenyl)ureidomethyl]-N-(2H-tetrazol-5-yl)benzamide]
- pIC50 (human glucagon receptor): 7.68
- pIC50 [1]: 8.52

Structure (SMILES): O=C(O)CCNC(=O)c1ccc(CN(CCc2ccc(Cl)c(Cl)c2)C(=O)c2csc3ccc(Cl)cc23)cc1 [Example 2, 3-(4-{[N-(5-Chlorobenzo[b]thiophen-3-carbonyl)-N-(3,4-dichlorophenylethyl)amino]methyl}benzoylamino)propionic acid]
- pIC50 [2]: 5.89

Structure (SMILES): CC(C)(C)[C@H]1CC[C@H](N(Cc2ccc(C(=O)NCCC(=O)O)cc2)C(=O)Nc2ccc(OC(F)(F)F)cc2)CC1 [Example 92, 3-{4-[1-(4-trans-tert-Butylcyclohexyl)-3-(4-trifluoromethoxyphenyl)ureidomethyl]benzoylamino}propionic acid]
- IC50 (human glucagon receptor; Glu Bd Assay (III) IC50 (nM)): 47 nM
- melting point: 152 to 154 °C

Structure (SMILES): CCCCC(CC)CN(Cc1ccc(C(=O)NCCC(=O)O)cc1)C(=O)/C=C/c1c(Cl)cccc1Cl (stereo not drawn) [Example 5, 3-(4-{[N-[3-(2,6-Dichlorophenyl)acryloyl]-N-(2-ethylhexyl)amino]methyl}benzoylamino)propionic acid]
- Glu Bd Assay (I) Effect, 100-Residual binding (%) at 1 μM [2]: 31.1%
- pIC50 [2]: 6.10

Structure (SMILES): O=C(O)CCNC(=O)c1ccc(CN(C(=O)Nc2cc(Cl)cc(Cl)c2)C2CCC3(CC2)SCCS3)cc1
- pIC50 [2]: 5.87

Structure (SMILES): O=C(O)CCNC(=O)c1ccc(CN(C(=O)Nc2ccc(OC(F)(F)F)cc2)C2CCCCC2)cc1
- pIC50 [2]: 5.57

Structure (SMILES): O=C(O)CCNC(=O)c1ccc(CN(CC(c2ccccc2)c2ccccc2)C(=O)c2csc3ccc(Cl)cc23)cc1 [Example 1, 3-(4-{[N-(5-Chlorobenzo[b]thiophen-3-carbonyl)-N-(2,2-diphenylethyl)amino]methyl}benzoylamino)propionic acid]
- pIC50 [2]: 6.92

Structure (SMILES): O=C(O)CCNC(=O)c1cccc(CN(CC(c2ccccc2)c2ccccc2)C(=O)c2csc3ccc(Cl)cc23)c1 [Example 9, 3-(3-{[N-(5-Chlorobenzo[b]thiophene-3-carbonyl)-N-(2,2-diphenylethyl)amino]methyl}benzoylamino)propionic acid]
- Glu Bd Assay (I) Effect, 100-Residual binding (%) ([2]; at 500 nM): 56.4% (at 500

Structure (SMILES): O=C(O)CCNC(=O)c1ccc(CN(CCC(c2ccccc2)c2ccccc2)C(=O)c2ccc(Cl)cc2)cc1 [Example 8, 3-(4-{[N-(4-Chlorobenzoyl)-N-(3,3-diphenylpropyl)amino]methyl}benzoylamino)propionic acid]
- Glu Bd Assay (I) Effect, 100-Residual binding (%) at 1 μM [2]: 37.8%
- pIC50 [2]: 6.17

Structure (SMILES): CC(C)(C)c1ccc(CN(Cc2ccc(C(=O)NCCC(=O)O)cc2)C(=O)/C=C/c2c(Cl)cccc2Cl)cc1 [Example 6, 3-(4-{[N-[3-(2,6-Dichlorophenyl)acryloyl]-N-(4-tert-butylbenzyl)amino]methyl}benzoylamino)propionic acid]
- Glu Bd Assay (I) Effect, 100-Residual binding (%) at 1 μM [2]: 29.5%
- pIC50 [2]: 5.92

Results, then the molecule that gave them:

- pIC50 [2]: 7.70
Structure (SMILES): CC(C)(C)C1CCC(N(Cc2ccc(C(=O)NCCC(=O)O)cc2)C(=O)Nc2ccc(-c3ccccc3)cc2)CC1 (stereo not drawn) [Example 12, 3-{4-[3-Biphenyl-4-yl-1-(4-tert-butylcyclohexyl)ureidomethyl]benzoylamino}propionic acid]

- pIC50 (human glucagon receptor): 6.33
- pIC50 [1]: 6.65
Structure (SMILES): CC(C)(C)C1CCC(N(Cc2ccc(C(=O)Nc3nn[nH]n3)cc2)C(=O)C=Cc2c(Cl)cccc2Cl)CC1 (stereo not drawn) [Example 477, 4-({(4-tert-Butylcyclohexyl)-[3-(2,6-dichlorophenyl)acryloyl]amino}methyl)-N-(2H-tetrazol-5-yl)benzamide]

- pIC50 [2]: 7.57
Structure (SMILES): CC(C)(C)C1CCC(N(Cc2ccc(C(=O)NCCC(=O)O)cc2)C(=O)Nc2ccc(OC(F)(F)F)cc2)CC1 (stereo not drawn) [Example 11, 3-{4-[1-(4-tert-Butylcyclohexyl)-3-(4-trifluoromethoxyphenyl)ureidomethyl]benzoylamino}propionic acid]

- Glu Bd Assay (I) Effect, 100-Residual binding (%) at 1 μM [2]: 28.5%
Structure (SMILES): CC(C)(C)C1CCC(N(Cc2ccc(C(=O)NCCC(=O)O)cc2)C(=O)c2cc3ccccc3s2)CC1 (stereo not drawn) [Example 4, 3-(4-{[N-(Benzo[b]thiophen-2-carbonyl)-N-(4-tert-butylcyclohexyl)amino]methyl}benzoylamino)propionic acid]

- Glu Bd Assay (I) Effect, 100-Residual binding (%) at 1 μM [2]: 30.4%
- pIC50 [2]: 6.07
Structure (SMILES): CC(C)(C)c1ccc(CN(Cc2ccc(C(=O)NCCC(=O)O)cc2)C(=O)c2cc3ccccc3s2)cc1 [Example 7, 3-(4-{[N-(Benzo[b]thiophen-2-carbonyl)-N-(4-tert-butylbenzyl)amino]methyl}benzoylamino)propionic acid]

- pIC50 [2]: 7.11
Structure (SMILES): CC(C)(C)C1CCC(N(Cc2ccc(C(=O)NCCC(=O)O)cc2)C(=O)Nc2cccc(C(F)(F)F)c2)CC1 (stereo not drawn) [Example 13, 3-{4-[1-(4-tert-Butylcyclohexyl)-3-(3-trifluoromethylphenyl)ureidomethyl]benzoylamino}propionic acid]

- pIC50 [2]: 5.89
Structure (SMILES): COC(C)(C)C1CCC(N(Cc2ccc(C(=O)NCCC(=O)O)cc2)C(=O)Nc2ccc(OC(F)(F)F)cc2)CC1 (stereo not drawn)

- Glu Bd Assay (I) Effect, 100-Residual binding (%) at 1 μM [2]: 26.2%
Structure (SMILES): CC(C)(C)C1CCC(N(Cc2ccc(C(=O)NCCC(=O)O)cc2)C(=O)Cc2csc3ccccc23)CC1 (stereo not drawn) [Example 3, 3-(4-{[N-(2-Benzo[b]thiophen-3-yl-acetyl)-N-(4-tert-butylcyclohexyl)amino]methyl}benzoylamino)propionic acid]
